Data from paper PMC9671208, “Synthesis, biological evaluation, and molecular docking of novel hydroxyzine derivatives as potential AR antagonists” (Frontiers in Chemistry, 2022).

Legend:
PC-3 = test: CCK-8 cytotoxicity assay, PC-3; assay type: cell-based, human; details: for IC50: Homo sapiens, PC-3 cells, CCK-8, 24 h, mean ± SD of three experiments
Method: (§1) Cell proliferation was measured using the CCK-8 assay kit ([Kaspers et al., 1997]; [Kaspers et al., 1998]; [Ding et al., 2010]). Cells were seeded into 96-well plates (>5*10^4) with approximately 100 ul of cell suspension per well and incubated in 37°C incubator for 4 h. Various concentrations of the compounds were then added and incubated for a further 24 h in a 37°C incubator. Finally, 10 ul CCK8 was added and incubated for 0.5–4 h, absorbance at 450 nm was determined. ([Guo et al., 2021]; [He et al., 2022a]; [Hu et al., 2022]).
(§2) The in vitro cytotoxic activity results of the synthesized derivatives 3–17 against human prostate cancer lines (PC-3, LNCaP, and DU145) and the human prostate epithelial cell line (WPMY-1) were evaluated, as shown in Table 1.

LNCaP = test: CCK-8 cytotoxicity assay, LNCaP; assay type: cell-based, human; details: for IC50: Homo sapiens, LNCaP cells, CCK-8, 24 h, mean ± SD of three experiments
Method: as §1, §2

DU145 = test: CCK-8 cytotoxicity assay, DU145; assay type: cell-based, human; details: for IC50: Homo sapiens, DU-145, DU145 cells, CCK-8, 24 h, mean ± SD of three experiments
Method: as §1, §2

WPMY-1 = test: CCK-8 cytotoxicity assay, WPMY-1 normal prostate epithelial cells; assay type: cell-based; details: WPMY-1 normal human prostate epithelial cells, CCK-8, 24 h; mean ± SD of three experiments
Method: as §1, §2

AR = target: T1, AR (Homo sapiens, UniProt P10275); test: AR reporter gene (luciferase) assay; assay type: cell-based; details: read-out: AR antagonistic activity % (10 μM)
T1 sequence (P10275 1-920): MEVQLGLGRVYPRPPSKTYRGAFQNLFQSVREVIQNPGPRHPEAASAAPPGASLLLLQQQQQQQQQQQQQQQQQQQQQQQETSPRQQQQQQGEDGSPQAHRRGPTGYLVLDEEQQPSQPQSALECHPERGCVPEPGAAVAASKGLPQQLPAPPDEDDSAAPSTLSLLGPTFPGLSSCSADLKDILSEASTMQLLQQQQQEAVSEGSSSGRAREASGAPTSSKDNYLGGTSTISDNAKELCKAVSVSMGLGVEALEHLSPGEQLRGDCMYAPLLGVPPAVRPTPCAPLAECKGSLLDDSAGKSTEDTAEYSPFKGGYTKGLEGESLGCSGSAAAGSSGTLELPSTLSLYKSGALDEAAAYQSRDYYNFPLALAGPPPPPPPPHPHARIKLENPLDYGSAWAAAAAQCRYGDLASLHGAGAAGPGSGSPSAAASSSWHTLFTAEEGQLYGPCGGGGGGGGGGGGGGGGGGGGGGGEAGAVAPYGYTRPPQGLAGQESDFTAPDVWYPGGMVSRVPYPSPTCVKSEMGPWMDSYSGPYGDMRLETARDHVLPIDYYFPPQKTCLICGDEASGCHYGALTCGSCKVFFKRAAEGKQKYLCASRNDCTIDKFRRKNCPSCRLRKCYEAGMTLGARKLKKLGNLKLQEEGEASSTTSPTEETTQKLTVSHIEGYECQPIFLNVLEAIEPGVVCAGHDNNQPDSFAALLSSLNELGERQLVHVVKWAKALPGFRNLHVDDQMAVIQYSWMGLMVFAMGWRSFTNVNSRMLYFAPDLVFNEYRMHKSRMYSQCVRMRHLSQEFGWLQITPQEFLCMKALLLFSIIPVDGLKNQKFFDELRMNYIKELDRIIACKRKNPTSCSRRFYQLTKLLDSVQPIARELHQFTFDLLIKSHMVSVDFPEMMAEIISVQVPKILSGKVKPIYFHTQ
Method: Firefly and Renilla luciferase activities, were determined using the Dual-Glo™luciferase assay kit. RLUs were determined using the GloMax®96-Microplate Luminometer.

Compound | cytotoxic activity against PC-3 cells (in words) (PC-3) | IC50 (PC-3) [µM] | cytotoxic activity against LNCaP cells (in words) (LNCaP) | IC50 (LNCaP) [µM] | cytotoxic activity against DU145 cells (in words) (DU145) | IC50 (DU145) [µM] | IC50 (WPMY-1) [µM] | inhibition at 10 µM (AR) [%] | melting point [°C]
Cc1ccc(C(c2ccccc2)N2CCN(Cc3ccc(CCO)cc3)CC2)cc1 (stereo not drawn) [Compound 4, 2-(4-((4-(phenyl(p-tolyl)methyl)piperazin-1-yl)methyl)phenyl)ethan-1-ol] | strong cytotoxic activities | 2.56 ± 0.32 | strong cytotoxic activities | 4.67 ± 1.02 | strong cytotoxic activities | 6.14 ± 0.24 | > 50 | 32.5 ± 0.65 | 125 to 126
CC(c1ccccc1)N1CCN(Cc2ccc(CCO)cc2)CC1 (stereo not drawn) [Compound 12, 2-(4-((4-(1-phenylethyl)piperazin-1-yl)methyl)phenyl)ethan-1-ol] |  | 13.7 ± 1.12 |  | 7.76 ± 0.19 |  | 16.3 ± 0.63 | > 50 | 68.62 ± 0.38 | 114 to 115
COc1ccccc1N1CCN(CC(O)COc2cccc3ccccc23)CC1 (stereo not drawn) [Naftopidil, reference compound] |  | 42.1 ± 0.79 |  | 22.4 ± 0.61 |  | 34.58 ± 0.31 | > 50 |  | 
Cc1ccc(CN2CCN(Cc3ccc(CCO)cc3)CC2)cc1 [Compound 13, 2-(4-((4-(4-methylbenzyl)piperazin-1-yl)methyl)phenyl)ethan-1-ol] |  | 15.4 ± 0.42 |  | 22.1 ± 0.76 |  | 17.2 ± 1.02 | 47.14 ± 0.42 | 64.18 ± 0.45 | 112 to 113
OCCc1ccc(CN2CCN(Cc3ccc(F)cc3)CC2)cc1 [Compound 15, 2-(4-((4-(4-fluorobenzyl)piperazin-1-yl)methyl)phenyl)ethan-1-ol] |  | 10.5 ± 1.14 |  | 18.45 ± 0.16 |  | 16.2 ± 0.62 | > 50 | 64.35 ± 0.17 | 114 to 115
OCCc1ccc(CN2CCN(C(c3ccccc3)c3ccccc3)CC2)cc1 [Compound 3, 2-(4-((4-benzhydrylpiperazin-1-yl)methyl)phenyl)ethan-1-ol] |  | 8.13 ± 0.12 |  | 6.14 ± 0.58 |  | 11.1 ± 0.76 | > 50 | 40.17 ± 0.24 | 122 to 123
OCCc1ccc(CN2CCN(C(c3ccccc3)c3ccc(Cl)cc3)CC2)cc1 (stereo not drawn) [Compound 9, 2-(4-((4-((4-chlorophenyl)(phenyl)methyl)piperazin-1-yl)methyl)phenyl)ethanol] | strong cytotoxic activities | 1.53 ± 0.16 | strong cytotoxic activities | 4.13 ± 0.06 | strong cytotoxic activities | 7.63 ± 0.12 | > 50 | 28.42 ± 0.25 | 130 to 131
OCCc1ccc(CN2CCN(Cc3ccccc3)CC2)cc1 [Compound 11, 2-(4-((4-benzylpiperazin-1-yl)methyl)phenyl)ethan-1-ol] |  | 20.4 ± 0.48 |  | 11.2 ± 0.14 |  | 11.3 ± 0.27 | > 50 | 65.15 ± 0.57 | 119 to 120
CC(C)(C)NC(=O)[C@H]1CC[C@H]2[C@@H]3CC[C@H]4NC(=O)C=C[C@]4(C)[C@H]3CC[C@]12C [Finasteride, reference compound] |  | 17.8 |  | 13.5 |  | 14.6 |  |  | 
COc1ccc(C(c2ccccc2)N2CCN(Cc3ccc(CCO)cc3)CC2)cc1 (stereo not drawn) [Compound 6, 2-(4-((4-((4-methoxyphenyl)(phenyl)methyl)piperazin-1-yl)methyl)phenyl)ethan-1-ol] | strong cytotoxic activities | 3.15 ± 0.48 | strong cytotoxic activities | 6.17 ± 1.02 | strong cytotoxic activities | 2.17 ± 0.72 | > 50 | 30.75 ± 0.17 | 116 to 117
OCCc1ccc(CN2CCN(C(c3ccc(Cl)cc3)c3ccc(Cl)cc3)CC2)cc1 [Compound 10, 2-(4-((4-(bis(4-chlorophenyl)methyl)piperazin-1-yl)methyl)phenyl)ethan-1-ol] |  | 15.24 ± 0.14 |  | 7.14 ± 0.29 |  | 10.8 ± 1.14 | > 50 | 20.47 ± 0.18 | 127 to 128
OCCc1ccc(CN2CCN(C(c3ccccc3)c3ccc(F)cc3)CC2)cc1 (stereo not drawn) [Compound 7, 2-(4-((4-((4-fluorophenyl)(phenyl)methyl)piperazin-1-yl)methyl)phenyl)ethan-1-ol] | strong cytotoxic activities | 1.87 ± 0.22 | strong cytotoxic activities | 5.17 ± 0.63 | strong cytotoxic activities | 2.17 ± 1.12 | 48.26 ± 0.41 | 38.7 ± 0.83 | 116 to 117
OCCc1ccc(CN2CCN(Cc3ccc(Cl)cc3)CC2)cc1 [Compound 16, 2-(4-((4-(4-chlorobenzyl)piperazin-1-yl)methyl)phenyl)ethan-1-ol] |  | 14.4 ± 0.35 |  | 16.4 ± 0.19 |  | 31.5 ± 1.21 | > 50 | 60.25 ± 0.35 | 109 to 110
OCCc1ccc(CN2CCN(C(c3ccc(F)cc3)c3ccc(F)cc3)CC2)cc1 [Compound 8, 2-(4-((4-(bis(4-fluorophenyl)methyl)piperazin-1-yl)methyl)phenyl)ethanol] |  | 10.12 ± 0.08 |  | 4.92 ± 0.29 |  | 12.3 ± 0.16 | 35.53 ± 0.13 | 25.2 ± 0.71 | 133 to 134
Cc1ccc(C(c2ccc(C)cc2)N2CCN(Cc3ccc(CCO)cc3)CC2)cc1 [Compound 5, 2-(4-((4-(di-p-tolylmethyl)piperazin-1-yl)methyl)phenyl)ethan-1-ol] | moderate activity | 12.1 ± 0.29 |  | 3.73 ± 0.58 | moderate activity | 9.82 ± 0.24 | 37.51 ± 0.37 | 22.7 ± 0.72 | 128 to 129
